# How the values were obtained:
# [1] = in vivo; conditions: rat, in vivo, ip; 5 days; hydrochloride salts; range in parentheses; read-out: DL50 i.p.
# Excerpt: (§1) The behavior of the animals has then been followed for a period of five days. The DL50 has been determined according to the method of I. T. Litchfield and F. Wilcoxon, (J. Pharmacol. Exper. Ther., 96, 99, 1949). The compound numbers in Table II correspond to the numbers in Table I.
# [2] = test system: Swiss rats; assay: in vivo; conditions: lidocaine = 1
# Excerpt: as §1
# [3] = test system: response to skin puncture; assay: Anaesthesia by infiltration (subcutaneous, back puncture); type: in vivo, guinea pigs; conditions: for Infiltration anaesthesia DL50/CE50: analogous to therapeutic index, DL50 i.p.; for Infiltration anaesthesia CE50: concentration in percent achieving 50% of total responses, hydrochloride salts; for Infiltration anaesthesia DL50/CE50 relative to lidocaine / Infiltration anaesthesia activity with respect to lidocaine: lidocaine = 1
# Procedure: The anaesthesia by infiltration has been determined in guinea pigs according to the method of E. Bulbring and I. Wajda, (Journal of Pharmacol. Exper. Ther. 85, 78, 1945). In each experiment, four doses of the substance in 0.25 cc of physiological saline solution is injected subcutaneously on the back after removal of hair. After five minutes, each animal is punctured six times at intervals of […].
# The test was repeated every five minutes for a period of 30 minutes. The extent of anaesthesia by infiltration was measured quantitatively by determining the sum of the instances in which the animal remained immobile during the thirty minute period on 36 possible blinks.
# [4] = test system: reflux of contraction of the lower limbs (lumbar plexus); assay: Anaesthesia by conduction (lumbar plexus); type: in vivo, frogs; conditions: for Conduction anaesthesia DL50/t' / Conduction anaesthesia 1/t'max. (c = 1%) with respect to lidocaine: c = 1%; for Conduction anaesthesia DL50/t': DL50 i.p.; for Conduction anaesthesia 1/t'max. (c = 1%) with respect to lidocaine / Conduction anaesthesia DL50/t' relative to lidocaine: lidocaine = 1
# Excerpt: Anaesthesia by conduction has been determined on frogs according to the method of E. Bulbring and I. Wajda (Journal Pharmacol. Exper. Ther., 85, 78, 1945). The compounds dissolved in physiological saline solution are introduced into the cavity obtained by a transversal incision in the abdomen and separating the viscera in order to expose the lumbar plexus. The period of time necessary to eliminate the reflux of contraction of the lower limbs stimulated by immersion of both posterior legs into hydrochloric acid of increasing concentration between 0.05-0.1-0.2 N for a period not in excess of ten seconds, at intervals of one minute is determined. The extent of anaesthesia of conduction has been determined by measuring the period of time required for each compound in three different concentrations, 0.2%-0.5%-1.0% in order to abolish the reflex of contraction with the concentration of hydrochloric acid indicated hereinabove.
# [5] = test system: aconitine-induced ventricular arrhythmia; assay: Anti-arrhythmic activity, aconitine infusion; type: in vivo, Wistar rats; conditions: for Aconitine i.v. necessary to induce ventricular arrhythmia: 3 min before aconitine 10 mcg/kg/min; for Anti-arrhythmic activity compared with lidocaine: times more active than lidocaine; for Anti-arrhythmic activity compared with quinidine: times more active than quinidine
# Procedure: (§2) The data reported hereinbelow relate in every instance to the hydrochloride salts of the individual compounds.
# This determination has been made in Wistar rats, anaesthetized with ethylurethane, (1 g/kg i.p.), according to the method of B. Vargaftig and J. L. Coigner (European Journal Pharmacology, 6, 49, 1969). The compounds dissolved in physiological saline solution, are injected intravenously three minutes prior to the infusion of aconitine, (10 mcg/kg/min.). The extent of anti-arrhythmic activity is determined quantitatively by determining the amount of aconitine necessary to induce ventricular arrhythmia.
# [6] = test system: corneal reflux; assay: Surface anaesthesia (corneal reflux, conjunctival sac); conditions: for Surface anaesthesia DL50/CE50: analogous to therapeutic index, DL50 i.p.; for Surface anaesthesia CE50: concentration in percent achieving 50% of total responses, pH 7 saline, hydrochloride salts; for Surface anaesthesia activity with respect to lidocaine: lidocaine = 1
# Procedure: as §2
# The surface anaesthesia has been determined in rabbits according to the method of M. R. A. Change and H. Lobstein (J. Pharmacol. Exper. Ther., 82, 203, 1944). The compounds dissolved in physiological saline solution of pH 7 were injected into the conjunctival sac and the corneal reflux was induced with the brush of Frey six times at intervals of five minutes for a total period of 40 minutes.
SMILES,LD50 at 120 h [1],DL50 i.p. relative to lidocaine [2],Infiltration anaesthesia DL50/CE50 [3],Infiltration anaesthesia CE50 [3],Infiltration anaesthesia DL50/CE50 relative to lidocaine [3],Infiltration anaesthesia activity with respect to lidocaine [3],Conduction anaesthesia DL50/t' [4],Conduction anaesthesia 1/t'max. (c = 1%) with respect to lidocaine [4],Conduction anaesthesia DL50/t' relative to lidocaine [4],Aconitine i.v. necessary to induce ventricular arrhythmia ([5]; 1.0 mg/kg i.v.),Aconitine i.v. necessary to induce ventricular arrhythmia ([5]; 3.0 mg/kg i.v.),Aconitine i.v. necessary to induce ventricular arrhythmia ([5]; 6.0 mg/kg i.v.),Surface anaesthesia DL50/CE50 [6],Surface anaesthesia CE50 [6],Surface anaesthesia activity with respect to lidocaine [6],Aconitine i.v. necessary to induce ventricular arrhythmia ([5]; 0.6 mg/kg i.v.),Anti-arrhythmic activity compared with lidocaine [5],Anti-arrhythmic activity compared with quinidine [5],Aconitine i.v. necessary to induce ventricular arrhythmia ([5]; 8.0 mg/kg i.v.)
CCN(CC)Cc1cccc(C(=O)Nc2c(C)cccc2C)c1 [Compound 2],67 mg/kg,0.47,291,0.23%,1.54,3.26,67,11.1,5.15,43 ± 8 µg/kg,77 ± 9 µg/kg,82 ± 9 µg/kg,163,0.41%,5.60,,,,
CCN(CC)Cc1ccccc1C(=O)Nc1c(C)cccc1Cl [Compound 13],16.3 mg/kg,0.11,58,0.28%,0.31,2.68,16,11.1,1.23,65 ± 7 µg/kg,67 ± 7 µg/kg,,27,0.60%,3.83,48 ± 6 µg/kg,at least twenty times more active than lidocaine,at least ten times more active than quinidine,
"CCN(CC)Cc1ccccc1C(=O)Nc1c(C)cccc1C [Compound 1, 2,6-Dimethylanilide of 2-diethylaminomethylbenzoic acid]",17.2 mg/kg,0.12,69,0.25%,0.36,3.00,6,3.6,0.46,67 ± 8 µg/kg,69 ± 8 µg/kg,,34,0.50%,4.60,50 ± 5 µg/kg,at least twenty times more active than lidocaine,at least ten times more active than quinidine,
Cc1cccc(C)c1NC(=O)c1cccc(CN2CCOCC2)c1 [Compound 11],260 mg/kg,1.83,273,0.95%,1.44,0.79,29,1.2,2.15,,,,22,11.90%,0.19,,,,
CCN(CC)Cc1ccc(C(=O)Nc2c(C)cccc2C)cc1 [Compound 3],82.5 mg/kg,0.58,10,8.02%,0.05,0.09,9,1.2,0.69,38 ± 5 µg/kg,39 ± 6 µg/kg,,17,4.78%,0.48,,,,47 ± 7 µg/kg
Cc1cccc(C)c1NC(=O)c1cccc(CN2CCCCC2)c1 [Compound 8],205 mg/kg,1.44,569,0.36%,3.01,2.08,41,2.2,3.15,,,,73,2.82%,0.82,,,,
"Cc1cccc(C)c1NC(=O)c1ccc(CN2CCCCC2)cc1 [Compound 9, 2,6-Dimethylanilide of 4-piperidinomethyl-benzoic acid]",210 mg/kg,1.48,750,0.28%,3.97,2.67,19,1.0,1.46,,,,109,1.92%,1.20,,,,
CCN(CC)Cc1ccccc1C(=O)Nc1c(C)cccc1C(=O)OC [Compound 14],24.7 mg/kg,0.17,57,0.43%,0.30,1.74,5,2.2,0.38,60 ± 7 µg/kg,81 ± 7 µg/kg,,60,0.41%,5.61,45 ± 8 µg/kg,at least twenty times more active than lidocaine,at least ten times more active than quinidine,

# Reference: US4305940A, “Benzamides with local anaesthetic and antiarrhythmic activity, salts, and method of preparation thereof and pharmaceutical compositions therefrom” (B.B.R. Boehringer Biochemia Robin S.p.A., priority 1979, dated 1981)
